Assay [1] addresses T1, D(1A) dopamine receptor (Rattus norvegicus, UniProt P18901). Description: Binding affinity to dopamine D1 receptor high binding site by radioligand displacement assay. (Loss of bound radioactivity is the signal in a displacement assay; it reports binding, not function.)
For assay [2], the target named is T1, D(1A) dopamine receptor. Description: Binding affinity to dopamine D1 receptor low binding site by radioligand displacement assay.
For assay [3], the target named is T2, D(3) dopamine receptor (Homo sapiens, UniProt P35462). Description: Displacement of [3H]domperidone from human cloned dopamine D3 receptor high binding site expressed in mouse CCL1-3 cells by scintillation counting. It is filed as cell-based.
T2 sequence (P35462 whole entry): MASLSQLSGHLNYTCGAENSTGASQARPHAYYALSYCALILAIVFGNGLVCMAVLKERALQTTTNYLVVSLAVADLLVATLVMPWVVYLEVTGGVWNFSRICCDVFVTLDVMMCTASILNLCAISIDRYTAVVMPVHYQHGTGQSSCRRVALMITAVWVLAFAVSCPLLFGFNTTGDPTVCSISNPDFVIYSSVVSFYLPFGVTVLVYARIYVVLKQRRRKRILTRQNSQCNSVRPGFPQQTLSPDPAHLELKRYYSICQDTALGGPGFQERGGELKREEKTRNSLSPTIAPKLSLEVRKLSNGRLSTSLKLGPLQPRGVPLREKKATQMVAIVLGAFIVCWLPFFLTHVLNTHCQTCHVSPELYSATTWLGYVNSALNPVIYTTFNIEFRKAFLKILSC
Assay [4] has as its target T2, D(3) dopamine receptor. Description: Displacement of [3H]domperidone from human cloned dopamine D3 receptor expressed in mouse CCL1-3 cells by scintillation counting. It is filed as cell-based.
The target in assay [5] is T2, D(3) dopamine receptor. Description: Displacement of [3H]domperidone from human dopamine D3 receptor expressed in human HEK293 cells by scintillation counting. It is filed as cell-based.
For a further assay, the target named is D(2) dopamine receptor (Rattus norvegicus, UniProt P61169). Description: Displacement of [3H]domperidone from dopamine D2 receptor low binding site in Sprague-Dawley rat striatum by scintillation counting.
Sequence of D(2) dopamine receptor (P61169 whole entry): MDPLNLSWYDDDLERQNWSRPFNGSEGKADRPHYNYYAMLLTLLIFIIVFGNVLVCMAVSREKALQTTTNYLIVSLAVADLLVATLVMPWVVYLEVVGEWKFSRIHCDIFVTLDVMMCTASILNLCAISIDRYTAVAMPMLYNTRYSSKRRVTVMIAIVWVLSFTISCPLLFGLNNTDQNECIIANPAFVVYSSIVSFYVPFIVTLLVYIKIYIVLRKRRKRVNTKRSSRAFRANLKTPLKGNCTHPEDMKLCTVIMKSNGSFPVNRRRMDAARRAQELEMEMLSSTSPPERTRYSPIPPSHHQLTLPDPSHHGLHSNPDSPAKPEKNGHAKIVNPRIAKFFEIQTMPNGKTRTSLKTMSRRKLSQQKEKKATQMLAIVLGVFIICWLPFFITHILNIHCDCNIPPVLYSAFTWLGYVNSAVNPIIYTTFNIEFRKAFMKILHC

The source of these data is ChEMBL document CHEMBL1671824, “Synthesis and Evaluation of Fluorinated Aporphines: Potential Positron Emission Tomography Ligands for D2 Receptors” (ACS Med Chem Lett, 2011).

T1 sequence (P18901 whole entry): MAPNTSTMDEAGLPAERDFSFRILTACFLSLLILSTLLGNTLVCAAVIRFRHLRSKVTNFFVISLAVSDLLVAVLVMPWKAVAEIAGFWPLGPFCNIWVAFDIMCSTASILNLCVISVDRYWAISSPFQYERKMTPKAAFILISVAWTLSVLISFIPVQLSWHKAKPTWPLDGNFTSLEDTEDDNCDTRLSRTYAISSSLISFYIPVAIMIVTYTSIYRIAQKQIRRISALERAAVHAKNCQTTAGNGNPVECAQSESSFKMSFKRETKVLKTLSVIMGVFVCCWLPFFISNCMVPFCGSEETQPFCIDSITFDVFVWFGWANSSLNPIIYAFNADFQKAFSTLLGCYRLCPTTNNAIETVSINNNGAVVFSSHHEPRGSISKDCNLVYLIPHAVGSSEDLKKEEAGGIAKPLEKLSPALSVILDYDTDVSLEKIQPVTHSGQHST

The term Ki denotes a dissociation constant, usually derived from enzyme kinetics or from competition with a known ligand. A lower Ki goes with tighter binding. For `CCN1CCc2cc(OCCF)cc3c2[C@H]1Cc1cccc(O)c1-3`, the Ki result at D(1A) dopamine receptor [1] is “Not Active”; on D(1A) dopamine receptor [2] it was over 5 µM.

Take `CCCN1CCc2cc(F)cc3c2[C@H]1Cc1ccc(O)c(O)c1-3`: the Ki on D(3) dopamine receptor [3] was 3.8 nM; on D(1A) dopamine receptor [1] it was “Not Active”; on D(1A) dopamine receptor [2], over 5 µM; on D(3) dopamine receptor [4] it was over 10 µM.

`CN1CCc2cc(OCCF)cc3c2[C@H]1Cc1ccc(O)c(O)c1-3`: the Ki result is “Not Active” at D(1A) dopamine receptor [1], 3.7 µM at D(1A) dopamine receptor [2] and over 10 µM on D(3) dopamine receptor [4].

Turning to `CCCN1CCc2cc(OCCF)cc3c2[C@H]1Cc1ccc(O)c(O)c1-3`, the inhibition constant (Ki) on D(3) dopamine receptor [3] was 1.9 nM; at D(1A) dopamine receptor [1] it was “Not Active”; at D(1A) dopamine receptor [2] it was over 5 µM.

Regarding `Oc1cccc2c1-c1cccc3c1[C@@H](C2)N(CCCF)CC3`, the Ki entry at D(1A) dopamine receptor [1] was “Not Active”; on D(1A) dopamine receptor [2], over 5 µM.

`CCCN1CCc2cccc3c2[C@H]1Cc1cccc(O)c1-3`: the figures for the Ki on D(3) dopamine receptor [3] and on D(1A) dopamine receptor [1] were 1.2 nM and “Not Active”, respectively.

For the compound `CCN1CCc2cc(OCCF)cc3c2[C@H]1Cc1ccc(O)c(O)c1-3`, the Ki at D(3) dopamine receptor [3] was 250 nM; on D(1A) dopamine receptor [1], “Not Active”; on D(1A) dopamine receptor [2] it was over 5 µM; at D(3) dopamine receptor [4] it was over 10 µM.

On to `CCN1CCc2cc(OCCCF)cc3c2[C@H]1Cc1cccc(O)c1-3`, for which the Ki result at D(1A) dopamine receptor [1] was “Not Active”; at D(1A) dopamine receptor [2], over 5 µM.

Turning to `CCCN1CCc2cc(OC)cc3c2[C@H]1Cc1ccc(O)c(O)c1-3`, the Ki was 1.02 nM at D(3) dopamine receptor [5] and over 5 µM on D(1A) dopamine receptor [2].

Regarding `CN1CCc2cc(OCCF)cc3c2[C@H]1Cc1cccc(O)c1-3`, the Ki result on D(1A) dopamine receptor [1] was “Not Active”.

`CCCN1CCc2cc(OCCCF)cc3c2[C@H]1Cc1cccc(O)c1-3`: the Ki entry is “Not Active” at D(1A) dopamine receptor [1] and over 5 µM at D(1A) dopamine receptor [2].

In the case of `CCCN1CCc2cc(OC)cc3c2[C@H]1Cc1cccc(O)c1-3`, the Ki on D(3) dopamine receptor [3] is 130 nM; on D(1A) dopamine receptor [1], “Not Active”; at D(3) dopamine receptor [4], over 10 µM.

As to `CN1CCc2cc(OCCCF)cc3c2[C@H]1Cc1ccc(O)c(O)c1-3`, the Ki was over 10 µM at D(2) dopamine receptor, “Not Active” on D(1A) dopamine receptor [1], over 5 µM at D(1A) dopamine receptor [2] and over 10 µM on D(3) dopamine receptor [4].

As for `CCCN1CCc2cc(OCCF)cc3c2[C@H]1Cc1cccc(O)c1-3`, the Ki entry is “Not Active” at D(1A) dopamine receptor [1] and over 5 µM at D(1A) dopamine receptor [2].

As for `CCCN1CCc2cc(OCCCF)cc3c2[C@H]1Cc1ccc(O)c(O)c1-3`, the results for the Ki on D(3) dopamine receptor [3], at D(1A) dopamine receptor [1] and at D(1A) dopamine receptor [2] were 1.1 nM, “Not Active” and over 5 µM, respectively.

As for `CCN1CCc2cc(OCCCF)cc3c2[C@H]1Cc1ccc(O)c(O)c1-3`, the inhibition constant Ki at D(3) dopamine receptor [3] is 230 nM; on D(1A) dopamine receptor [1] it was “Not Active”; on D(1A) dopamine receptor [2], over 5 µM; on D(3) dopamine receptor [4] it was over 10 µM.
